According to ChEMBL document CHEMBL5335775, “Bioisosteric replacement of 1H-1,2,3-triazole with 1H-tetrazole ring enhances anti-leukemic activity of (5-benzylthiazol-2-yl)benzamides” (Eur J Med Chem, 2023):
Activity calls are given as the source filed them. The rule behind the calls is not given here.

Columns and labels:
[1] = Antiproliferative activity against human HaCaT cells assessed as inhibition of cell proliferation measured after 72 hrs by MTT assay; assay type: toxicity, cell-based
K562 [2] = assay: Antiproliferative activity against human K562 cells assessed as inhibition of cell proliferation measured after 72 hrs by MTT assay; assay type: functional, cell-based; conditions: K562, 72 h
[3] = Antiproliferative activity against J774.2 cells assessed as inhibition of cell proliferation measured after 72 hrs by MTT assay; assay type: toxicity, cell-based; conditions: mouse
[4] = Antiproliferative activity against NIH3T3 cells assessed as inhibition of cell proliferation measured after 72 hrs by MTT assay; assay type: toxicity, cell-based; conditions: mouse
T47D = assay: Antiproliferative activity against human T47D cells assessed as inhibition of cell proliferation measured after 48 hrs by SRB assay; assay type: functional, cell-based
[5] = Selectivity index, ratio of IC50 for […] to IC50 for human K562 cells; assay type: functional
CAKI-1 = assay: Anticancer activity against human CAKI-1 cells assessed as cell growth at 10^-5 M incubated for 48 hrs by SRB assay relative to control; assay type: functional; conditions: CAKI-1, 48 h, dose 1 10^-5M, read-out: Activity
MDA-MB-468 = assay: Anticancer activity against human MDA-MB-468 cells assessed as cell growth at 10^-5 M incubated for 48 hrs by SRB assay relative to control; assay type: functional; conditions: MDA-MB-468, 48 h, dose 1 10^-5M, read-out: Activity
MCF7 = assay: Anticancer activity against human MCF7 cells assessed as cell growth at 10^-5 M incubated for 48 hrs by SRB assay relative to control; assay type: functional; conditions: MCF7, 48 h, dose 1 10^-5M, read-out: Activity
MDA-MB-435 = assay: Anticancer activity against human MDA-MB-435 cells assessed as cell growth at 10^-5 M incubated for 48 hrs by SRB assay relative to control; assay type: functional; conditions: MDA-MB-435, 48 h, dose 1 10^-5M, read-out: Activity
ACHN = assay: Anticancer activity against human ACHN cells assessed as cell growth at 10^-5 M incubated for 48 hrs by SRB assay relative to control; assay type: functional; conditions: dose 1 10^-5M, read-out: Activity
HCT-15 = assay: Anticancer activity against human HCT-15 cells assessed as cell growth at 10^-5 M incubated for 48 hrs by SRB assay relative to control; assay type: functional; conditions: HCT-15, 48 h, dose 1 10^-5M, read-out: Activity
K562 [6] = assay: Anticancer activity against human K562 cells assessed as cell growth at 10^-5 M incubated for 48 hrs by SRB assay relative to control; assay type: functional; conditions: K562, 48 h, dose 1 10^-5M, read-out: Activity
KM12 = assay: Anticancer activity against human KM12 cells assessed as cell growth at 10^-5 M incubated for 48 hrs by SRB assay relative to control; assay type: functional; conditions: KM12, 48 h, dose 1 10^-5M, read-out: Activity
NCI-H460 = assay: Anticancer activity against human NCI-H460 cells assessed as cell growth at 10^-5 M incubated for 48 hrs by SRB assay relative to control; assay type: functional; conditions: NCI-H460, 48 h, dose 1 10^-5M, read-out: Activity
M14 = assay: Anticancer activity against human M14 cells assessed as cell growth at 10^-5 M incubated for 48 hrs by SRB assay relative to control; assay type: functional; conditions: M14, 48 h, dose 1 10^-5M, read-out: Activity
LOX IMVI = assay: Anticancer activity against human LOX IMVI cells assessed as cell growth at 10^-5 M incubated for 48 hrs by SRB assay relative to control; assay type: functional; conditions: dose 1 10^-5M, read-out: Activity
UACC-62 = assay: Anticancer activity against human UACC-62 cells assessed as cell growth at 10^-5 M incubated for 48 hrs by SRB assay relative to control; assay type: functional; conditions: UACC-62, 48 h, dose 1 10^-5M, read-out: Activity
Hep 3B2 = assay: Antiproliferative activity against human Hep3B cells assessed as inhibition of cell proliferation; assay type: functional, cell-based
K562 [7] = assay: Induction of DNA damage in human K562 cells assessed as tail DNA level at 700 nM incubated for 24 hrs by comet assay (reference value: 0.5 to 0.6 %); assay type: functional
K562 [8] = assay: Induction of pro-apoptotic morphological changes in human K562 cells at 70 to 700 nM incubated for 24 hrs by Hoescht-33342 staining based analysis; assay type: functional, cell-based; conditions: dose 70-700 nM
K562 [9] = assay: Induction of DNA damage in human K562 cells assessed as tail DNA level at 70 nM incubated for 24 hrs by comet assay (reference value: 0.5 to 0.6 %); assay type: functional
K562 [10] = assay: Induction of DNA damage in human K562 cells assessed as olive tail moment level at 700 nM incubated for 24 hrs by comet assay (reference value: 0.2); assay type: functional
K562 [11] = assay: Induction of DNA damage in human K562 cells assessed as olive tail moment level at 70 nM incubated for 24 hrs by comet assay (reference value: 0.2); assay type: functional
[12] = Selectivity index, ratio of IC50 for human HaCaT cells to IC50 for human K562 cells; assay type: toxicity; conditions: HaCaT cells and K562 cells, read-out: Ratio IC50

Compound | IC50 at 72 h [1] [µM] | IC50 (K562 [2]) [µM] | IC50 at 72 h [3] [µM] | IC50 at 72 h [4] [µM] | also measured
CC(C)c1nnnn1-c1ccc(C(=O)Nc2ncc(Cc3ccccc3)s2)cc1 | 5.59 | > 100 | 8.94 | > 100 | 
Cc1cccc(Cc2cnc(NC(=O)c3cccc(-n4cnnn4)c3)s2)c1 | > 100 | > 100 | 52.8 | > 100 | 
Cc1nnnn1-c1ccc(C(=O)Nc2ncc(Cc3ccccc3)s2)cc1 | 6 | > 100 | 3.61 | > 100 | 
O=C(Nc1ncc(Cc2cccc(Cl)c2Cl)s1)c1cc2ccccc2o1 |  |  |  |  | IC50 (T47D): 0.0255 µM
O=C(/C=C/c1ccc(-n2cnnn2)cc1)Nc1ncc(Cc2ccccc2)s1 | 50.4 | 1.05 | 37.2 | > 100 | Ratio IC50 [5]: 35.5
Cc1cccc(Cc2cnc(NC(=O)c3ccc(-n4cnnn4)cc3)s2)c1 | > 100 | 20.1 | 43.2 | > 100 | growth at 10 µM (CAKI-1): 35.2%; Ratio IC50 [5]: 2.1; growth at 10 µM (MDA-MB-468): 34.2%; growth at 10 µM (MCF7): 30.5%; growth at 10 µM (MDA-MB-435): 27.7%; growth at 10 µM (ACHN): 30.7%; growth at 10 µM (HCT-15): 34.6%; growth at 10 µM (K562 [6]): 19.2%; growth at 10 µM (KM12): 30.2%; growth at 10 µM (NCI-H460): 25.8%; growth at 10 µM (M14): 33.8%; growth at 10 µM (LOX IMVI): 30.1%; growth at 10 µM (UACC-62): 12%
O=C(CCc1ccco1)Nc1ncc(Cc2ccccc2)s1 |  |  |  |  | IC50 (Hep 3B2): 0.089 µM
COc1cccc2c1C(=O)c1c(O)c3c(c(O)c1C2=O)C[C@@](O)(C(=O)CO)C[C@@H]3O[C@H]1C[C@H](N)[C@H](O)[C@H](C)O1 [DOXORUBICIN] | 0.86 |  | 0.64 | 0.79 | Activity (K562 [7]): 3.5%; Activity (K562 [8]): inactive; Activity (K562 [9]): 0.7%; Activity (K562 [10]): 1; Activity (K562 [11]): 0.4
Cc1ccc(Cc2cnc(NC(=O)c3ccc(-n4cnnn4)cc3)s2)cc1 | 52.6 | 8 | 59.8 | > 100 | growth at 10 µM (CAKI-1): 39.1%; selectivity ratio [12]: 6.6; growth at 10 µM (ACHN): 39.5%; growth at 10 µM (K562 [6]): 22.9%; growth at 10 µM (LOX IMVI): 39.4%; growth at 10 µM (UACC-62): 20.3%
